Measured values published in PubChem BioAssay (NCI).
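Growth conditions: 96-well plates. Treatment: test compound, 48 hours, 5 concentrations. Analysis: linear interpolation between bracketing concentrations; unreached endpoints set to highest concentration. GI50: concentration for 50% inhibition of growth. TGI denotes the concentration required for complete inhibition of growth.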

Key:
Test in all cases: inhibition of tumour cell growth, NCI panel, 48 h
UO-31 renal = system: UO-31 renal
M14 melanoma = system: M14 melanoma
DMS 114 small cell lung = system: DMS 114 small cell lung
OVCAR-8 ovarian = system: OVCAR-8 ovarian
UACC-62 melanoma = system: UACC-62 melanoma
SK-MEL-28 melanoma = system: SK-MEL-28 melanoma
MALME-3M melanoma = system: MALME-3M melanoma
MDA-MB-435 = system: MDA-MB-435
NCI/ADR-RES ovarian = system: NCI/ADR-RES ovarian

c1ccc(-c2csc3ncn4cnnc4c23)cc1
TGI (UO-31 renal): > 100 µM
TGI (M14 melanoma): > 100 µM
TGI (DMS 114 small cell lung): > 100 µM
TGI (OVCAR-8 ovarian): > 100 µM
TGI (UACC-62 melanoma): > 100 µM
TGI (SK-MEL-28 melanoma): > 100 µM

Cn1nc(-c2ccccc2)c(C(=O)/C=C/c2ccc(Cl)cc2)c(N2CCOCC2)c1=O
TGI (UO-31 renal): 21.7 µM
TGI (M14 melanoma): 15.7 µM
TGI (DMS 114 small cell lung): 9.83 µM
TGI (OVCAR-8 ovarian): 26.2 µM
TGI (UACC-62 melanoma): 10.7 µM
TGI (SK-MEL-28 melanoma): 7.64 µM

O=[N+]([O-])/C=C/c1ccc(Cl)cc1Cl
TGI (UO-31 renal): 29.8 µM
TGI (MALME-3M melanoma): 32.6 µM
TGI (M14 melanoma): 24.4 µM
TGI (DMS 114 small cell lung): 35.8 µM
TGI (OVCAR-8 ovarian): 67.7 µM
TGI (UACC-62 melanoma): 31.3 µM
TGI (SK-MEL-28 melanoma): 30.3 µM

N#C/C(=C1\OC(=N)C(c2ccc(Cl)cc2Cl)C1=O)c1ccc(Cl)cc1Cl (stereo not drawn)
TGI (UO-31 renal): > 100 µM
TGI (MALME-3M melanoma): > 100 µM
TGI (M14 melanoma): > 100 µM
TGI (DMS 114 small cell lung): > 100 µM
TGI (OVCAR-8 ovarian): > 100 µM
TGI (UACC-62 melanoma): > 100 µM
TGI (SK-MEL-28 melanoma): > 100 µM

O=C(c1c(O)cc(O)cc1O)C1Cc2ccccc21 (stereo not drawn)
TGI (UO-31 renal): > 100 µM
TGI (MALME-3M melanoma): > 100 µM
TGI (M14 melanoma): > 100 µM
TGI (DMS 114 small cell lung): > 100 µM
TGI (OVCAR-8 ovarian): > 100 µM
TGI (UACC-62 melanoma): > 100 µM

CC(N)CC(=O)O (stereo not drawn)
TGI (UO-31 renal): > 5000 µM
TGI (MALME-3M melanoma): > 5000 µM
TGI (M14 melanoma): > 5000 µM
TGI (DMS 114 small cell lung): > 5000 µM
TGI (UACC-62 melanoma): > 5000 µM
TGI (SK-MEL-28 melanoma): > 5000 µM

O=C(CC(=O)c1ccccc1)C(=O)Nc1ccc(Cl)cc1
TGI (UO-31 renal): > 100 µM
TGI (MALME-3M melanoma): > 100 µM
TGI (M14 melanoma): > 100 µM
TGI (DMS 114 small cell lung): > 57 µM
TGI (OVCAR-8 ovarian): > 100 µM
TGI (UACC-62 melanoma): > 100 µM
TGI (SK-MEL-28 melanoma): > 100 µM

O=C(c1ccco1)c1c(C(F)(F)F)n([O-])c2cc(F)c(F)cc2[n+]1=O
GI50 (UO-31 renal): 0.546 µM
TGI (UO-31 renal): 1.03 µM
GI50 (MALME-3M melanoma): 2.06 µM
TGI (MALME-3M melanoma): 4.21 µM
GI50 (M14 melanoma): 0.225 µM
TGI (M14 melanoma): 0.528 µM
GI50 (OVCAR-8 ovarian): 0.412 µM
TGI (OVCAR-8 ovarian): 1.33 µM
GI50 (MDA-MB-435): 0.553 µM
TGI (MDA-MB-435): 3.45 µM
GI50 (NCI/ADR-RES ovarian): 0.0648 µM
TGI (NCI/ADR-RES ovarian): 0.179 µM
GI50 (UACC-62 melanoma): 0.242 µM
TGI (UACC-62 melanoma): 0.76 µM
GI50 (SK-MEL-28 melanoma): 0.416 µM
TGI (SK-MEL-28 melanoma): 2.58 µM

CC(C)OC(=O)C1Cc2c([nH]c3ccccc23)C(c2ccccc2)N1 (stereo not drawn)
TGI (UO-31 renal): 73.9 µM
TGI (MALME-3M melanoma): 73.4 µM
TGI (M14 melanoma): > 100 µM
TGI (DMS 114 small cell lung): > 100 µM
TGI (OVCAR-8 ovarian): > 100 µM
TGI (UACC-62 melanoma): > 100 µM
TGI (SK-MEL-28 melanoma): > 100 µM

C=C1C(=O)O[C@H]2[C@H]1CC/C(COC(=O)NCc1c[nH]c3ccc(F)cc13)=C\CC[C@@]1(C)O[C@@H]21
GI50 (UO-31 renal): 1.52 µM
TGI (UO-31 renal): 2.87 µM
GI50 (MALME-3M melanoma): 1.66 µM
TGI (MALME-3M melanoma): 3.32 µM
GI50 (M14 melanoma): 1.23 µM
TGI (M14 melanoma): 2.73 µM
GI50 (OVCAR-8 ovarian): 1.68 µM
TGI (OVCAR-8 ovarian): 3.91 µM
GI50 (MDA-MB-435): 1.31 µM
TGI (MDA-MB-435): 3.1 µM
GI50 (NCI/ADR-RES ovarian): 3.58 µM
TGI (NCI/ADR-RES ovarian): 20.3 µM
GI50 (UACC-62 melanoma): 1.47 µM
TGI (UACC-62 melanoma): 2.87 µM
GI50 (SK-MEL-28 melanoma): 1.63 µM
TGI (SK-MEL-28 melanoma): 3.24 µM

O=S(=O)(NCCCNc1nccc(-c2c(-c3ccc(F)cc3)nc3sccn23)n1)c1ccc(F)cc1
GI50 (UO-31 renal): 3.8 µM
TGI (UO-31 renal): > 100 µM
GI50 (MALME-3M melanoma): 9.06 µM
TGI (MALME-3M melanoma): 94.4 µM
GI50 (M14 melanoma): 7.06 µM
TGI (M14 melanoma): > 100 µM
GI50 (OVCAR-8 ovarian): 4.56 µM
TGI (OVCAR-8 ovarian): > 100 µM
GI50 (MDA-MB-435): 3.69 µM
TGI (MDA-MB-435): > 100 µM
GI50 (NCI/ADR-RES ovarian): 6.6 µM
TGI (NCI/ADR-RES ovarian): > 100 µM
GI50 (UACC-62 melanoma): 4.68 µM
TGI (UACC-62 melanoma): 50.7 µM
GI50 (SK-MEL-28 melanoma): 20.3 µM
TGI (SK-MEL-28 melanoma): > 100 µM

O=C1/C(=C/c2ccccc2O)N=C(c2ccccc2)N1c1cc(C(F)(F)F)ccc1Cl
GI50 (UO-31 renal): 94.2 µM
TGI (UO-31 renal): > 100 µM
GI50 (MALME-3M melanoma): 46.7 µM
TGI (MALME-3M melanoma): > 100 µM
GI50 (M14 melanoma): 62.5 µM
TGI (M14 melanoma): > 100 µM
GI50 (OVCAR-8 ovarian): 46.3 µM
TGI (OVCAR-8 ovarian): > 100 µM
GI50 (MDA-MB-435): 22.1 µM
TGI (MDA-MB-435): > 100 µM
GI50 (NCI/ADR-RES ovarian): 46.6 µM
TGI (NCI/ADR-RES ovarian): > 100 µM
GI50 (UACC-62 melanoma): 69.3 µM
TGI (UACC-62 melanoma): > 100 µM
GI50 (SK-MEL-28 melanoma): > 100 µM
TGI (SK-MEL-28 melanoma): > 100 µM

COCCOCCOCCOCCOC(=O)OC[n+]1ccc(NC(=NCCCCCCOc2ccc(Cl)cc2)NC#N)cc1
GI50 (UO-31 renal): 11.3 µM
TGI (UO-31 renal): 24.1 µM
GI50 (MALME-3M melanoma): 12.1 µM
TGI (MALME-3M melanoma): 29.5 µM
GI50 (M14 melanoma): 0.0409 µM
TGI (M14 melanoma): 14.7 µM
GI50 (OVCAR-8 ovarian): < 0.01 µM
TGI (OVCAR-8 ovarian): 20.8 µM
GI50 (MDA-MB-435): < 0.01 µM
TGI (MDA-MB-435): 14.7 µM
GI50 (NCI/ADR-RES ovarian): < 0.0395 µM
TGI (NCI/ADR-RES ovarian): 20.2 µM
GI50 (UACC-62 melanoma): 9.97 µM
TGI (UACC-62 melanoma): 22.2 µM
GI50 (SK-MEL-28 melanoma): 11.1 µM
TGI (SK-MEL-28 melanoma): 23.5 µM

O=C(Cc1ccccc1)C(c1ccccc1)S(=O)(=O)c1ccccc1 (stereo not drawn)
TGI (UO-31 renal): > 100 µM
TGI (MALME-3M melanoma): > 100 µM
TGI (M14 melanoma): > 100 µM
TGI (DMS 114 small cell lung): > 100 µM
TGI (OVCAR-8 ovarian): > 100 µM
TGI (UACC-62 melanoma): > 100 µM
TGI (SK-MEL-28 melanoma): > 100 µM

COc1cc(C(=O)/C=C/c2c(C(F)(F)F)nc3ccccn23)cc(OC)c1OC
GI50 (UO-31 renal): 1.49 µM
TGI (UO-31 renal): 3.11 µM
GI50 (MALME-3M melanoma): 1.57 µM
TGI (MALME-3M melanoma): 3.35 µM
GI50 (M14 melanoma): 1.82 µM
TGI (M14 melanoma): 4.06 µM
GI50 (OVCAR-8 ovarian): 3.39 µM
TGI (OVCAR-8 ovarian): > 100 µM
GI50 (MDA-MB-435): 2.26 µM
TGI (MDA-MB-435): 8.76 µM
GI50 (NCI/ADR-RES ovarian): 1.41 µM
TGI (NCI/ADR-RES ovarian): 21.8 µM
GI50 (UACC-62 melanoma): 1.66 µM
TGI (UACC-62 melanoma): 3.32 µM
GI50 (SK-MEL-28 melanoma): 1.93 µM
TGI (SK-MEL-28 melanoma): 3.74 µM

[Cl][Cu][Cl]
GI50 (UO-31 renal): > 10 µM
TGI (UO-31 renal): > 10 µM
GI50 (MALME-3M melanoma): > 10 µM
TGI (MALME-3M melanoma): > 10 µM
GI50 (M14 melanoma): > 10 µM
TGI (M14 melanoma): > 10 µM
GI50 (OVCAR-8 ovarian): > 10 µM
TGI (OVCAR-8 ovarian): > 10 µM
GI50 (MDA-MB-435): > 10 µM
TGI (MDA-MB-435): > 10 µM
GI50 (NCI/ADR-RES ovarian): > 10 µM
TGI (NCI/ADR-RES ovarian): > 10 µM
GI50 (UACC-62 melanoma): > 10 µM
TGI (UACC-62 melanoma): > 10 µM
GI50 (SK-MEL-28 melanoma): > 10 µM
TGI (SK-MEL-28 melanoma): > 10 µM

N#Cc1c(NC(=O)c2ccccc2F)sc2c1CCCC2
GI50 (UO-31 renal): > 25 µM
TGI (UO-31 renal): > 25 µM
GI50 (MALME-3M melanoma): > 25 µM
TGI (MALME-3M melanoma): > 25 µM
GI50 (M14 melanoma): > 25 µM
TGI (M14 melanoma): > 25 µM
GI50 (OVCAR-8 ovarian): > 25 µM
TGI (OVCAR-8 ovarian): > 25 µM
GI50 (MDA-MB-435): 1.31 µM
TGI (MDA-MB-435): > 12.1 µM
GI50 (NCI/ADR-RES ovarian): 11.5 µM
TGI (NCI/ADR-RES ovarian): > 25 µM
GI50 (UACC-62 melanoma): 18.1 µM
TGI (UACC-62 melanoma): > 25 µM
GI50 (SK-MEL-28 melanoma): > 25 µM
TGI (SK-MEL-28 melanoma): > 25 µM

O=c1[nH]c(=S)[nH]c(-c2ccccc2)c1Cc1c(O)ccc2ccccc12
TGI (UO-31 renal): 80.9 µM
TGI (MALME-3M melanoma): > 100 µM
TGI (M14 melanoma): 78.5 µM
TGI (OVCAR-8 ovarian): > 100 µM
TGI (MDA-MB-435): 93 µM
TGI (NCI/ADR-RES ovarian): > 100 µM
TGI (UACC-62 melanoma): 52.4 µM
TGI (SK-MEL-28 melanoma): > 100 µM

CC(C)N(Cc1ccc(F)cc1)c1ccc(CO)c(Cl)c1
GI50 (UO-31 renal): 0.732 µM
TGI (UO-31 renal): 14.2 µM
GI50 (MALME-3M melanoma): 14.4 µM
TGI (MALME-3M melanoma): 30.3 µM
GI50 (M14 melanoma): 13 µM
TGI (M14 melanoma): 28.8 µM
GI50 (OVCAR-8 ovarian): 10.6 µM
TGI (OVCAR-8 ovarian): 25 µM
GI50 (MDA-MB-435): 15 µM
TGI (MDA-MB-435): 29.5 µM
GI50 (NCI/ADR-RES ovarian): 10.4 µM
TGI (NCI/ADR-RES ovarian): 23.8 µM
GI50 (UACC-62 melanoma): 0.0664 µM
TGI (UACC-62 melanoma): 0.4 µM
GI50 (SK-MEL-28 melanoma): 14 µM
TGI (SK-MEL-28 melanoma): 27.2 µM

C[P+]1(c2ccccc2)CCCCC1
TGI (UO-31 renal): > 100 µM
TGI (MALME-3M melanoma): > 100 µM
TGI (M14 melanoma): > 100 µM
TGI (DMS 114 small cell lung): > 100 µM
TGI (OVCAR-8 ovarian): > 100 µM
TGI (UACC-62 melanoma): > 100 µM
TGI (SK-MEL-28 melanoma): > 100 µM
